What all share (assay): AK assay 384-well format, Prestwick library screening
One experiment has as its system E. coli. In kind it is cell-based, Escherichia coli. To be noted: for fold induction at 50 µM: Escherichia coli, 3 h.
Another experiment has as its system P. aeruginosa. The experiment is classed as cell-based, Pseudomonas aeruginosa. To be noted: for fold induction at 50 µM: Pseudomonas aeruginosa, 3 h.
In experiment [1] the test system is S. aureus strain USA300-0114. The experiment is classed as cell-based, Staphylococcus aureus. To be noted: for fold induction at 50 µM: Staphylococcus aureus, USA300, 3 h.
For the next experiment, the system named is K. pneumoniae. In kind it is cell-based, Klebsiella pneumoniae. To be noted: for fold induction at 50 µM: Klebsiella pneumoniae, 3 h.
Experiment [2] concerns A. baumannii strain 98-37-09. In kind it is cell-based, Acinetobacter baumannii. To be noted: for fold induction at 50 µM: Acinetobacter baumannii, 983709, 3 h.
The test system of another experiment is E. faecium. The experiment is classed as cell-based, Enterococcus faecium. To be noted: for fold induction at 50 µM: Enterococcus faecium, 3 h.
Setting [3] is: planktonic E. coli, 50 μM final drug concentration, 384-well, […].

Structures can show the parent of a compound that is named as a salt. Where two headings read alike, the source gives them in different places.

As to `CN1[C@@H]2CC[C@H]1C[C@@H](OC(=O)C(CO)c1ccccc1)C2` (stereo partly drawn) [Atropine sulfate monohydrate], the fold induction at 50 µM with E. coli (planktonic E. coli, 50 μM final drug concentration, […], read-out: AK-based Prestwick Library Screening Results, E. coli (increase in extracellular AK activity)) came out at 0.6; in the experiment with P. aeruginosa (planktonic P. aeruginosa, 50 μM final drug concentration, […], read-out: AK-based Prestwick Library Screening Results, P. aeruginosa (increase in extracellular AK activity)), 0.5; in experiment [1] (planktonic S. aureus, 50 μM final drug concentration, […], read-out: AK-based Prestwick Library Screening Results, S. aureus (increase in extracellular AK activity)), 0.5; in the experiment on K. pneumoniae (planktonic K. pneumoniae, 50 μM final drug concentration, […], read-out: AK-based Prestwick Library Screening Results, K. pneumoniae (increase in extracellular AK activity)), 0.5; in experiment [2] (planktonic A. baumannii, 50 μM final drug concentration, […], read-out: AK-based Prestwick Library Screening Results, A. baumannii (increase in extracellular AK activity)) it was 0.5; in the experiment with E. faecium (planktonic E. faecium, 50 μM final drug concentration, […], read-out: AK-based Prestwick Library Screening Results, E. faecium (increase in extracellular AK activity)), 0.8.
In the case of `CCOC(=O)c1cncn1[C@H](C)c1ccccc1` [Etomidate], the fold induction at 50 µM was 0.5 in the experiment on E. coli (50 μM final drug concentration, […], read-out: AK-based Prestwick Library Screening Results, E. coli (fold increase in extracellular AK activity)); 0.4 with P. aeruginosa (50 μM final drug concentration, […], read-out: AK-based Prestwick Library Screening Results, P. aeruginosa (fold increase in extracellular AK activity)); 0.3 in experiment [1] (50 μM final drug concentration, […], read-out: AK-based Prestwick Library Screening Results, S. aureus (fold increase in extracellular AK activity)); 0.4 with K. pneumoniae (50 μM final drug concentration, […], read-out: AK-based Prestwick Library Screening Results, K. pneumoniae (fold increase in extracellular AK activity)); 0.3 in experiment [2] (50 μM final drug concentration, […], read-out: AK-based Prestwick Library Screening Results, A. baumannii (fold increase in extracellular AK activity)); 0.9 with E. faecium (50 μM final drug concentration, […], read-out: AK-based Prestwick Library Screening Results, E. faecium (fold increase in extracellular AK activity)).
For `CN1[C@@H]2CC[C@H]1C[C@@H](OC(=O)[C@H](CO)c1ccccc1)C2` [Hyoscyamine (L)], the “AK-based Prestwick Library Screening Results: E. coli (increase in extracellular AK activity)” value in the experiment on E. coli (setting [3]) is on record as 1.3. In addition, the “AK-based Prestwick Library Screening Results: P. aeruginosa (increase in extracellular AK activity)” value in the experiment with P. aeruginosa (planktonic P. aeruginosa, 50 μM final drug concentration, 384-well, […]) worked out at 1.2. In experiment [1] (planktonic S. aureus, 50 μM final drug concentration, 384-well, […]), the “AK-based Prestwick Library Screening Results: S. aureus (increase in extracellular AK activity)” value was 1.2. Moreover, the “AK-based Prestwick Library Screening Results: K. pneumoniae (increase in extracellular AK activity)” value in the experiment on K. pneumoniae (planktonic K. pneumoniae, 50 μM final drug concentration, 384-well, […]) is given as 1.2. For the same compound, the “AK-based Prestwick Library Screening Results: A. baumannii (increase in extracellular AK activity)” value in experiment [2] (planktonic A. baumannii, 50 μM final drug concentration, 384-well, […]) stood at 1.4. For the same compound, the “AK-based Prestwick Library Screening Results: E. faecium (increase in extracellular AK activity)” value in the experiment on E. faecium (planktonic E. faecium, 50 μM final drug concentration, 384-well, […]) was 1.0.
On to `CN(C)CCCN1c2ccccc2CCc2ccccc21` [Imipramine hydrochloride], for which the fold induction at 50 µM with E. coli (planktonic E. coli, 50 μM final drug concentration, 384-well, cutoff for positive-scoring molecules 3-fold increase, read-out: AK-based Prestwick Library Screening Results: E. coli (increase in extracellular AK activity)) turned out to be 1.2; in the experiment with P. aeruginosa (planktonic P. aeruginosa, 50 μM final drug concentration, 384-well, cutoff for positive-scoring molecules 3-fold increase, read-out: AK-based Prestwick Library Screening Results: P. aeruginosa (increase in extracellular AK activity)), 1.1; in experiment [1] (planktonic S. aureus, 50 μM final drug concentration, 384-well, cutoff for positive-scoring molecules 3-fold increase, read-out: AK-based Prestwick Library Screening Results: S. aureus (increase in extracellular AK activity)) it was 1.2; with K. pneumoniae (planktonic K. pneumoniae, 50 μM final drug concentration, 384-well, cutoff for positive-scoring molecules 3-fold increase, read-out: AK-based Prestwick Library Screening Results: K. pneumoniae (increase in extracellular AK activity)), 1; in experiment [2] (planktonic A. baumannii, 50 μM final drug concentration, 384-well, cutoff for positive-scoring molecules 3-fold increase, read-out: AK-based Prestwick Library Screening Results: A. baumannii (increase in extracellular AK activity)), 1.3; in the experiment with E. faecium (planktonic E. faecium, 50 μM final drug concentration, 384-well, cutoff for positive-scoring molecules 3-fold increase, read-out: AK-based Prestwick Library Screening Results: E. faecium (increase in extracellular AK activity)) it was 0.9.
Take `O=C1CC[C@@]2(O)[C@H]3Cc4ccc(O)c5c4[C@@]2(CCN3CC2CC2)[C@H]1O5` [Naltrexone hydrochloride dihydrate]: the fold induction at 50 µM in the experiment with E. coli (read-out: AK-based Prestwick Library Screening Results, E. coli (increase in extracellular AK activity)) came out at 0.9; with P. aeruginosa (read-out: AK-based Prestwick Library Screening Results, P. aeruginosa (increase in extracellular AK activity)) it was 0.8; in experiment [1] (read-out: AK-based Prestwick Library Screening Results, S. aureus (increase in extracellular AK activity)), 0.7; in the experiment on K. pneumoniae (read-out: AK-based Prestwick Library Screening Results, K. pneumoniae (increase in extracellular AK activity)), 0.6; in experiment [2] (read-out: AK-based Prestwick Library Screening Results, A. baumannii (increase in extracellular AK activity)), 0.9; in the experiment with E. faecium (read-out: AK-based Prestwick Library Screening Results, E. faecium (increase in extracellular AK activity)) it was 1.
For `COc1cc2nc(N3CCN(C(=O)c4ccco4)CC3)nc(N)c2cc1OC` [Prazosin hydrochloride], the fold induction at 50 µM came to 1.2 in the experiment on E. coli (50 μM final drug concentration, cutoff for positive-scoring molecules 3-fold increase, read-out: AK-based Prestwick Library Screening Results, E. coli (fold increase in extracellular AK activity)); 1.1 with P. aeruginosa (50 μM final drug concentration, cutoff for positive-scoring molecules 3-fold increase, read-out: AK-based Prestwick Library Screening Results, P. aeruginosa (fold increase in extracellular AK activity)); 1.4 in experiment [1] (50 μM final drug concentration, cutoff for positive-scoring molecules 3-fold increase, read-out: AK-based Prestwick Library Screening Results, S. aureus (fold increase in extracellular AK activity)); 0.9 in the experiment on K. pneumoniae (50 μM final drug concentration, cutoff for positive-scoring molecules 3-fold increase, read-out: AK-based Prestwick Library Screening Results, K. pneumoniae (fold increase in extracellular AK activity)); 1.4 in experiment [2] (50 μM final drug concentration, cutoff for positive-scoring molecules 3-fold increase, read-out: AK-based Prestwick Library Screening Results, A. baumannii (fold increase in extracellular AK activity)); 1.1 in the experiment on E. faecium (50 μM final drug concentration, cutoff for positive-scoring molecules 3-fold increase, read-out: AK-based Prestwick Library Screening Results, E. faecium (fold increase in extracellular AK activity)).
Take `C=C[C@H]1C[N@@]2CC[C@H]1C[C@@H]2[C@@H](O)c1ccnc2ccc(OC)cc12` [Quinidine hydrochloride monohydrate]: the fold induction at 50 µM is 1 with E. coli (50 μM final drug concentration, 384-well format, […], read-out: AK-based Prestwick Library Screening Results, E. coli (increase in extracellular AK activity)); 0.9 in the experiment with P. aeruginosa (50 μM final drug concentration, 384-well format, […], read-out: AK-based Prestwick Library Screening Results, P. aeruginosa (increase in extracellular AK activity)); 0.9 in experiment [1] (50 μM final drug concentration, 384-well format, […], read-out: AK-based Prestwick Library Screening Results, S. aureus (increase in extracellular AK activity)); 0.8 in the experiment on K. pneumoniae (50 μM final drug concentration, 384-well format, […], read-out: AK-based Prestwick Library Screening Results, K. pneumoniae (increase in extracellular AK activity)); 0.9 in experiment [2] (50 μM final drug concentration, 384-well format, […], read-out: AK-based Prestwick Library Screening Results, A. baumannii (increase in extracellular AK activity)); 1 in the experiment on E. faecium (50 μM final drug concentration, 384-well format, […], read-out: AK-based Prestwick Library Screening Results, E. faecium (increase in extracellular AK activity)).
In the case of `Clc1ccccc1CN1CCc2sccc2C1` [Ticlopidine hydrochloride], the fold induction at 50 µM in the experiment on E. coli (50 μM final drug concentration, 384-well format, cutoff for positive-scoring molecules 3-fold increase, read-out: AK-based Prestwick Library Screening Results, E. coli (increase in extracellular AK activity)) was found to be 1.3; in the experiment on P. aeruginosa (50 μM final drug concentration, 384-well format, cutoff for positive-scoring molecules 3-fold increase, read-out: AK-based Prestwick Library Screening Results, P. aeruginosa (increase in extracellular AK activity)) it was 1.1; in experiment [1] (50 μM final drug concentration, 384-well format, cutoff for positive-scoring molecules 3-fold increase, read-out: AK-based Prestwick Library Screening Results, S. aureus (increase in extracellular AK activity)), 0.8; with K. pneumoniae (50 μM final drug concentration, 384-well format, cutoff for positive-scoring molecules 3-fold increase, read-out: AK-based Prestwick Library Screening Results, K. pneumoniae (increase in extracellular AK activity)) it was 1; in experiment [2] (50 μM final drug concentration, 384-well format, cutoff for positive-scoring molecules 3-fold increase, read-out: AK-based Prestwick Library Screening Results, A. baumannii (increase in extracellular AK activity)) it was 1.1; in the experiment on E. faecium (50 μM final drug concentration, 384-well format, cutoff for positive-scoring molecules 3-fold increase, read-out: AK-based Prestwick Library Screening Results, E. faecium (increase in extracellular AK activity)), 1.
As for `COc1ccc(CCN(C)CCCC(C#N)(c2ccc(OC)c(OC)c2)C(C)C)cc1OC.Cl` (stereo not drawn) [Verapamyl hydrochloride], the “AK-based Prestwick Library Screening Results: E. coli (increase in extracellular AK activity)” value in the experiment with E. coli (setting [3]) is 1.3. In addition, the “AK-based Prestwick Library Screening Results: P. aeruginosa (increase in extracellular AK activity)” value in the experiment on P. aeruginosa (planktonic P. aeruginosa, 50 μM final drug concentration, 384-well, cutoff for positive-scoring molecules 3-fold increase) was determined as 1.2. Besides, the “AK-based Prestwick Library Screening Results: S. aureus (increase in extracellular AK activity)” value in experiment [1] (planktonic S. aureus, 50 μM final drug concentration, 384-well, cutoff for positive-scoring molecules 3-fold increase) was 1.2. The “AK-based Prestwick Library Screening Results: K. pneumoniae (increase in extracellular AK activity)” value with K. pneumoniae (planktonic K. pneumoniae, 50 μM final drug concentration, 384-well, cutoff for positive-scoring molecules 3-fold increase) worked out at 0.9. Besides, in experiment [2] (planktonic A. baumannii, 50 μM final drug concentration, 384-well, cutoff for positive-scoring molecules 3-fold increase), the “AK-based Prestwick Library Screening Results: A. baumannii (increase in extracellular AK activity)” value turned out to be 1.5. Besides, the “AK-based Prestwick Library Screening Results: E. faecium (increase in extracellular AK activity)” value in the experiment with E. faecium (planktonic E. faecium, 50 μM final drug concentration, 384-well, cutoff for positive-scoring molecules 3-fold increase) amounted to 0.9.
